Data: patent US12059425B2, “Heterocyclic compounds and uses thereof” (Kumquat Biosciences Inc., priority 2022, dated 2024)

Assays:
wildtype K-Ras = target: T1, wildtype K-Ras (Homo sapiens, UniProt P01116); test: PPI-HTRF assay, wildtype K-Ras / SOS1 interaction; format: biochemical; conditions: HTRF, K-Ras wt; read-out: PPI-HTRF-5 nM (K-Ras wt IC50)
T1 construct: made in house; host or cells: E. coli, e.g. BL21 (DE3)
Method in brief: (§1)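 Compounds were tested in duplicate (10 μM to 0.01 μM) for disruption of Ras–SOS1 binding, measured as FRET between anti-GST-Eu on GST-K-Ras and anti-6His-XL665 on His-hSOS1. The buffer was HEPES pH 7.4 with NaCl, DTT, BSA and Igepal. Emission ratios (665/620 nm, excitation 337 nm) read after ≥10 min gave IC50 values.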

K-Ras G12V = target: T2, K-Ras G12V (Homo sapiens, UniProt P01116, G12V); test: PPI-HTRF assay, K-Ras G12V / SOS1 interaction; format: biochemical; conditions: HTRF, K-Ras G12V; read-out: PPI-HTRF-5 nM (K-Ras G12V IC50)
T2 construct: made in house; host or cells: E. coli, e.g. BL21 (DE3)
Method in brief: as §1

K-Ras G12D = target: T3, K-Ras G12D (Homo sapiens, UniProt P01116, G12D); test: PPI-HTRF assay, K-Ras G12D / SOS1 interaction; format: biochemical; conditions: HTRF, K-Ras G12D; read-out: PPI-HTRF-5 nM (K-Ras G12D IC50)
T3 construct: made in house; host or cells: E. coli, e.g. BL21 (DE3)
Method in brief: as §1

SW620 cells = test: Ras cellular assay, cell proliferation SW620; format: cell-based; conditions: Homo sapiens, SW-620
Excerpt: (§2) For example, this assay can be also used to assess selective growth inhibition of a mutant Ras protein relative to a wildtype, or relative to a different mutant Ras protein.

K-Ras G12S = target: T4, K-Ras G12S (Homo sapiens, UniProt P01116, G12S); test: PPI-HTRF assay, K-Ras G12S / SOS1 interaction; format: biochemical; conditions: read-out: PPI-HTRF-5 nM (K-Ras G12S IC50)
T4 construct: made in house; host or cells: E. coli, e.g. BL21 (DE3)
Method in brief: as §1

A549 cells = test: Ras cellular assay, cell proliferation A549; format: cell-based; conditions: Homo sapiens
Procedure: as §2
A549 (ATCC CRL-185) and LS123 (ATCC CRL-255) cell lines comprise a G12S mutation and can be used to assess Ras cellular signaling in vitro, e.g., in response to treatment with a compound described herein. A549 culture medium is prepared with RPMI-1640 and 10% heat-inactivated FBS. LS123 culture medium is prepared with RPMI-1640 and 10% heat-inactivated FBS. A CellTiter-Glo (CTG) luminescent based assay (Promega) is used to assess growth of the cells, as a measurement of the ability of the compounds herein to inhibit Ras signaling in the cells. The cells (e.g., 800 per well) are seeded in their respective culture medium in standard tissue culture-treated 384-well format plates (Falcon #08-772-116) or ultra-low attachment surface 384-well format plates (S-Bio #MS-9384WZ). The day after plating, cells are treated with a dilution series (e.g., a 10 point, 3-fold dilution series) of the compounds herein (e.g., approximately 40 μL final volume per well). Cell viability can be monitored (e.g., approximately 6 days later) according to the manufacturer's recommended instructions, where CellTiter-Glo reagent is added (e.g., approximately 10 μL), vigorously mixed, covered, and placed on a plate shaker (e.g., approximately for 20 min) to ensure sufficient cell lysis prior to assessment of luminescent signal. The IC50 values are determined using the four parameter fit. The resulting IC50 value is a measurement of the ability of the test compound to reduce cell growth of Ras-driven cells (e.g., tumor cell lines) in vitro and/or in vivo.

GP2D cells = test: Ras cellular assay, cell proliferation GP2D; format: cell-based
Method in brief: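 GP2D cells (G12D Ras mutant) seeded (e.g., 800/well) and treated the next day with a dilution series (e.g., 9-point, 3-fold). After approximately 5 days, viability measured by CellTiter-Glo luminescence; IC50 from four-parameter fit.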

T3 sequence (P01116 1-188 isoform P01116-2 G12D): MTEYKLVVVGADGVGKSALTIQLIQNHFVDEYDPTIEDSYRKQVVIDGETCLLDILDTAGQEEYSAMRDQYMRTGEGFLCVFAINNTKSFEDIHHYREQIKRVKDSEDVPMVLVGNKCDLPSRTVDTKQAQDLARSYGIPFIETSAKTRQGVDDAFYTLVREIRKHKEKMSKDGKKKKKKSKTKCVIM
T1 sequence (P01116 1-188 isoform P01116-2): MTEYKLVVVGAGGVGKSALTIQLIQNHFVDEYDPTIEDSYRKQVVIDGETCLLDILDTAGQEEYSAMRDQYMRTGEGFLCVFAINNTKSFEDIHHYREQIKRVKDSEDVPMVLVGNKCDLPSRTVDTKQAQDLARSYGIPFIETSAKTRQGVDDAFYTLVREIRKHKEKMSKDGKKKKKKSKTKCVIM
T4 sequence (P01116 1-188 isoform P01116-2 G12S): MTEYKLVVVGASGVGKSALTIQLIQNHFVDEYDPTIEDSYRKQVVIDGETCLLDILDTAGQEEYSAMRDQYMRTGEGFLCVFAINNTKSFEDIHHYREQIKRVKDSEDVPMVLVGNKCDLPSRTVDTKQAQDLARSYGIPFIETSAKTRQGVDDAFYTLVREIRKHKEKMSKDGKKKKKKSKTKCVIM
T2 sequence (P01116 1-188 isoform P01116-2 G12V): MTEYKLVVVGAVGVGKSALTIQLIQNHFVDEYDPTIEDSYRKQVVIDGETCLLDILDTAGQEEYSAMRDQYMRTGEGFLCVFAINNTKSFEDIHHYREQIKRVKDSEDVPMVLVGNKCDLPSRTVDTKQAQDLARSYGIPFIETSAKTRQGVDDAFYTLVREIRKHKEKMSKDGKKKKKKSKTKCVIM

IC50 (wildtype K-Ras)	IC50 (K-Ras G12V)	IC50 (K-Ras G12D)	IC50 (SW620 cells)	IC50 (K-Ras G12S)	IC50 (A549 cells)	Structure (SMILES)	IC50 (GP2D cells)
< 5 µM	< 5 µM	< 5 µM	< 5 µM	< 5 µM	< 5 µM	N#Cc1c(N)sc2c(F)ccc(-c3c(Cl)c4c5c(nc(OC[C@@]67CCCN6C[C@H](F)C7)nc5c3F)N(C3CC3)C3COCC3CO4)c12 (stereo partly drawn) [compound 125, 2-amino-4-(6-chloro-12-cyclopropyl-4-fluoro-2-(((2R,7aS)-2-fluorotetrahydro-1H-pyrrolizin-7a(5H)-yl)methoxy)-8a,9,11a,12-tetrahydro-8H,11H-furo[3′,4′:6,7][1,5]oxazocino[4,3,2-de]quinazolin-5-yl)-7-fluorobenzo[b]thiophene-3-carbonitrile]	< 5 µM
< 5 µM	< 5 µM	< 5 µM	< 5 µM	< 5 µM	< 5 µM	N#Cc1c(N)sc2c(F)ccc(-c3c(Cl)c4c5c(nc(OC[C@@]67CCCN6C[C@H](F)C7)nc5c3F)N(CC3CC3)C3COCC3CO4)c12 (stereo partly drawn) [compound 101, 2-amino-4-(6-chloro-12-(cyclopropylmethyl)-4-fluoro-2-(((2R,7aS)-2-fluorotetrahydro-1H-pyrrolizin-7a(5H)-yl)methoxy)-8a,9,11a,12-tetrahydro-8H,11H-furo[3′,4′:6,7][1,5]oxazocino[4,3,2-de]quinazolin-5-yl)-7-fluorobenzo[b]thiophene-3-carbonitrile]	< 5 µM
< 5 µM	< 5 µM	< 5 µM	< 5 µM	< 5 µM	< 5 µM	COC1CCC2COc3c(Cl)c(-c4ccc(F)c5sc(N)c(C#N)c45)c(F)c4nc(OC[C@@]56CCCN5C[C@H](F)C6)nc(c34)N2C1 (stereo partly drawn) [compound 182, 2-amino-4-(6-chloro-4-fluoro-2-(((2R,7aS)-2-fluorotetrahydro-1H-pyrrolizin-7a(5H)-yl)methoxy)-11-methoxy-8,8a,9,10,11,12-hexahydropyrido[2′,1′:3,4][1,4]oxazepino [5,6,7-de]quinazolin-5-yl)-7-fluorobenzo[b]thiophene-3-carbonitrile]	< 5 µM
< 5 µM	< 5 µM	< 5 µM	< 5 µM	< 5 µM	< 5 µM	COC[C@H]1C[C@H]2COc3c(Cl)c(-c4ccc(F)c5sc(N)c(C#N)c45)c(F)c4nc(OC[C@@]56CCCN5C[C@H](F)C6)nc(c34)N21 [compound 173, 2-amino-4-(9-chloro-7-fluoro-5-(((2R,7aS)-2-fluorotetrahydro-1H-pyrrolizin-7a(5H)-yl)methoxy)-2-(methoxymethyl)-1,2,11,11a-tetrahydroazeto[2′,1′:3,4][1,4]-oxazepino[5,6,7-de]quinazolin-8-yl)-7-fluorobenzo[b]thiophene-3-carbonitrile]	< 5 µM
< 5 µM	< 5 µM	< 5 µM	< 5 µM	< 5 µM	< 5 µM	N#Cc1c(N)sc2c(F)ccc(-c3c(Cl)c4c5c(nc(OC[C@@]67CCCN6C[C@H](F)C7)nc5c3F)N3Cc5ccnn5CCC3CCO4)c12 (single isomer, unassigned) [compound 153]	< 5 µM
< 5 µM	< 5 µM	< 5 µM	< 5 µM	< 5 µM	< 5 µM	N#Cc1c(N)sc2c(F)ccc(-c3c(Cl)c4c5c(nc(OC[C@@]67CCCN6C[C@H](F)C7)nc5c3F)N(CC(F)F)C3COCC3CO4)c12 (stereo partly drawn) [compound 188, 2-amino-4-(6-chloro-12-(2,2-difluoroethyl)-4-fluoro-2-(((2R,7aS)-2-fluorotetrahydro-1H-pyrrolizin-7a(5H)-yl)methoxy)-8a,9,11a,12-tetrahydro-8H,11H-furo[3′,4′:6,7][1,5]oxazocino[4,3,2-de]quinazolin-5-yl)-7-fluorobenzo[b]thiophene-3-carbonitrile]	< 5 µM
< 5 µM	< 5 µM	< 5 µM	< 5 µM	< 5 µM	< 5 µM	N#Cc1c(N)sc2c(F)ccc(-c3c(Cl)c4c5c(nc(OC[C@@]67CCCN6C[C@H](F)C7)nc5c3F)N3CC[C@H]3CO4)c12 [compound 192, 2-amino-4-((11aS)-9-chloro-7-fluoro-5-(((2R,7aS)-2-fluorotetrahydro-1H-pyrrolizin-7a(5H)-yl)methoxy)-1,2,11,11a-tetrahydroazeto[2′,1′:3,4][1,4]oxazepino [5,6,7-de]quinazolin-8-yl)-7-fluorobenzo[b]thiophene-3-carbonitrile]	< 5 µM
< 5 µM	< 5 µM	< 5 µM	< 5 µM	< 5 µM	< 5 µM	N#Cc1c(N)sc2c(F)ccc(-c3c(Cl)c4c5c(nc(OC[C@@]67CCCN6C[C@H](F)C7)nc5c3F)N3CC5(CCCC3CO4)CN(C(=O)C3CC3(F)F)C5)c12 (stereo partly drawn) [compound 155, 2-amino-4-(3-chloro-1′-(2,2-difluorocyclopropane-1-carbonyl)-1-fluoro-13-(((2R,7aS)-2-fluorotetrahydro-1H-pyrrolizin-7a(5H)-yl)methoxy)-5a,6,7,8-tetrahydro-5H,10H-spiro[azepino[2′,1′:3,4][1,4]oxazepino[5,6,7-de]quinazoline-9,3′-azetidin]-2-yl)-7-fluorobenzo[b]thiophene-3-carbonitrile]	< 5 µM
< 5 µM	< 5 µM	< 5 µM	< 5 µM	< 5 µM	< 5 µM	N#Cc1c(N)sc2c(F)ccc(-c3c(Cl)c4c5c(nc(OC[C@@]67CCCN6C[C@H](F)C7)nc5c3F)N3CC(F)(F)C[C@H]3CO4)c12 [compound 181]	< 5 µM
< 5 µM	< 5 µM	< 5 µM	< 5 µM	< 5 µM	< 5 µM	CC1(O)CCN2c3nc(OC[C@@]45CCCN4C[C@H](F)C5)nc4c(F)c(-c5ccc(F)c6sc(N)c(C#N)c56)c(Cl)c(c34)OCC2C1 (stereo partly drawn) [compound 136, 2-amino-4-(3-chloro-1-fluoro-12-(((2R,7aS)-2-fluorotetrahydro-1H-pyrrolizin-7a(5H)-yl)methoxy)-7-hydroxy-7-methyl-5,5a,6,7,8,9-hexahydropyrido[2′,1′:3,4][1,4]oxazepino [5,6,7-de]quinazolin-2-yl)-7-fluorobenzo[b]thiophene-3-carbonitrile]	< 5 µM
< 5 µM	< 5 µM	< 5 µM	< 5 µM	< 5 µM	< 5 µM	CN1c2nc(OC[C@@]34CCCN3C[C@H](F)C4)nc3c(F)c(-c4ccc(F)c5sc(N)c(C#N)c45)c(Cl)c(c23)OCC2CNCC21 (stereo partly drawn) [compound 140, 2-amino-4-(6-chloro-4-fluoro-2-(((2R,7aS)-2-fluorotetrahydro-1H-pyrrolizin-7a(5H)-yl)methoxy)-12-methyl-8a,9,10,11,11a,12-hexahydro-8H-pyrrolo[3′,4′:6,7][1,5]oxazocino[4,3,2-de]quinazolin-5-yl)-7-fluorobenzo[b]thiophene-3-carbonitrile]	< 5 µM
< 5 µM	< 5 µM	< 5 µM	< 5 µM	< 5 µM	< 5 µM	N#CCC1CN2c3nc(OC[C@@]45CCCN4C[C@H](F)C5)nc4c(F)c(-c5ccc(F)c6sc(N)c(C#N)c56)c(Cl)c(c34)OCCC12 (stereo partly drawn) [compound 114, 2-amino-4-(9-chloro-1-(cyanomethyl)-7-fluoro-5-(((2R,7aS)-2-fluorotetrahydro-1H-pyrrolizin-7a(5H)-yl)methoxy)-1,11,12,12a-tetrahydro-2H-azeto[1′,2′:5,6][1,5]oxazocino[4,3,2-de]quinazolin-8-yl)-7-fluorobenzo[b]thiophene-3-carbonitrile]	< 5 µM
